Assay results as given in patent US12433854B2, “Methods and compositions for preventing or treating calciphylaxis” (Epizon Pharma, Inc., priority 2018, dated 2025).
Where two headings read alike, the source gives them in different places.

Assays:
[1] = test system: osteocalcin; details: 100-200 μg/d for 4 to 12 weeks; significantly and in a dose-dependent manner; cited from earlier work
[2] = test system: subjects at risk of development of calciphylaxis; test: MK-7 and/or MKH2-7 in subjects at risk for development of calciphylaxis (Example 1); type: in vivo, human; details: 10 mg, 25 mg or 50 mg orally once daily; blood samples; contemplated
Excerpt: This example describes the administration of MK-7 and/or MKH2-7 to subjects at risk for development of calciphylaxis, but who have not yet developed the characteristic skin lesions of calciphylaxis. Risk factors to be considered include, but are not limited to, diabetes mellitus, obesity, ESRD and/or hemodialysis, and prior treatment with warfarin (Nigwekar et al. (2016), supra). It is contemplated that administration of MK-7 and/or MKH2-7 can result in protection of the subjects from skin lesions and a change in certain biomarker levels indicative of the prevention of the development of calciphylaxis.
Subjects at risk of development of calciphylaxis orally receive MK-7 and/or MKH2-7 at 10 mg, 25 mg or 50 mg once daily for at least 2 weeks, 4 weeks, 6 weeks, 8 weeks, 3 months, 6 months, 1 year, or indefinitely. The dosage form is a 10 mg or 25 mg soft-gel capsule. Two 25 mg capsules are be administered once daily to the 50 mg dosage cohort.
It should be noted that not all subjects with elevated risk factors for calciphylaxis will develop the characteristic skin lesions of calciphylaxis. The intent of treating with MK-7 and/or MKH2-7 proactively (prior to a clinical diagnosis of calciphylaxis) is the prevention of lesion appearance. Thus, a drop in frequency of, or elimination of lesion appearances is contemplated to be a successful treatment.
Several biomarkers can be assessed to determine the efficacy of MK-7 and/or MKH2-7 at the three dose levels. Exemplary biomarkers include PIVKA-II; uncarboxylated and total Matrix Gla Protein (MGP); uncarboxylated, carboxylated and total osteocalcin protein; uncarboxylated, carboxylated and total Protein C, osteoprotegerin, Fetuin A and hs-CRP.
Blood samples are obtained to measure the biomarkers according to the following schedule. Blood sampling can occur during treatment on a weekly or monthly basis. It is contemplated that administration of MK-7 and/or MKH2-7 will result in (i) an increase in PIVKA-II, osteoprotegerin, or Fetuin A, which is indicative of slowing the progression of, arresting, or reversing, calciphylaxis, (ii) a decrease in uncarboxylated MGP, uncarboxylated osteocalcin, and/or uncarboxylated Protein C, which is indicative of slowing the progression of, arresting, or reversing calciphylaxis.
Further, pulse wave velocity (PWV) can be measured to assess arterial compliance. Improved vascular compliance will be indicative of slowing the progression of, arresting, or reversing calciphylaxis.

[3] = test system: adult hemodialysis patients; details: cited from earlier work
[4] = test system: subjects diagnosed with calciphylaxis; test: MK-7 and/or MKH2-7 in subjects diagnosed with calciphylaxis (Example 2); type: in vivo, human; details: 10 mg, 25 mg or 50 mg orally once daily; contemplated
Excerpt: This example describes the administration of MK-7 and/or MKH2-7 to subjects diagnosed with calciphylaxis. Typical symptoms include presentation of characteristic painful skin lesions (Nigwekar et al. (2015) “Calciphylaxis: Risk Factors, Diagnosis, and Treatment.” Am. J. Kidney Dis. 66:133-46). Definitive diagnosis of calciphylaxis is achieved via skin biopsy (Nigwekar, 2015 supra). Further conditions need to be considered for correct diagnosis (Id.).
Subjects diagnosed with calciphylaxis orally receive MK-7 and/or MKH2-7 at 10 mg, 25 mg or 50 mg once daily for at least 2 weeks, 4 weeks, 6 weeks, 8 weeks, 3 months, 6 months, 1 year, or indefinitely. The dosage form is a 10 mg or 25 mg soft-gel capsule. Two 25 mg capsules are administered once daily to the 50 mg dosage cohort.
The arrest of, or decreases in lesion size and frequency is contemplated to be an indication of successful treatment.
Additionally, because calciphylaxis has a considerable mortality risk, increased overall survival time of diagnosed subjects will be an indication of treatment success. It is contemplated that administration of MK-7 and/or MKH2-7 according to the foregoing will result in an increased overall survival time of diagnosed subjects.

[5] = test system: subjects with ESRD receiving hemodialysis; test: MK-7 in subjects with stable ESRD receiving hemodialysis: biomarker changes day 1 to day 15; type: in vivo, human; details: 10 mg capsule of MK-7 per day orally for 14 days; change between day 1 and day 15
Procedure: This example describes the administration of MK-7 to subjects with ESRD receiving hemodialysis, and who are at risk of developing calciphylaxis. Administration of MK-7 can result in a change in certain biomarker levels indicative of the prevention of the development of calciphylaxis, or in the arrest or slowing down of the development of calciphylaxis. A number of subjects with stable ESRD but without calciphylaxis are enrolled in the study, whereupon the subjects orally receive a 10 mg capsule of MK-7 per day for 14 days. The levels of certain biomarkers, including uncarboxylated Matrix Gla Protein (MGP), uncarboxylated osteocalcin, osteoprotegerin, Fetuin A and hs-CRP were assessed on day 1 and on day 15 (the end of treatment), and the changes between day 1 and day 15 were calculated.

[6] = vitamin K2 supplementation, hemodialysis patients

Compound	ratio of carboxylated to undercarboxylated osteocalcin [1]	Fetuin A [2]	PIVKA-II [2]	osteoprotegerin [2]	uncarboxylated MGP [2]	uncarboxylated Protein C [2]	uncarboxylated osteocalcin [2]	response rate in the reduction in dp-ucMGP levels ([3]; group receiving 135 μg of menaquinone-7) [%]	response rate in the reduction in dp-ucMGP levels ([3]; group receiving 360 μg of menaquinone-7) [%]	overall survival time of diagnosed subjects [4]	average increase in Fetuin A [5] [%]	average increase in osteoprotegerin [5] [%]	average reduction in hs-CRP [5] [%]	average reduction in uncarboxylated MGP [5] [%]	average reduction in uncarboxylated osteocalcin [5] [%]	circulating PIVKA-II levels [3, 6]	circulating dp-ucMGP levels [3, 6]	circulating uncarboxylated osteocalcin levels [3, 6]
CC(C)=CCC/C(C)=C/CC/C(C)=C/CC/C(C)=C/CC/C(C)=C/CC/C(C)=C/CC/C(C)=C/CC1=C(C)C(=O)c2ccccc2C1=O [MK-7, 2-[(2E,6E,10E,14E,18E,22E)-3,7,11,15,19,23,27-heptamethyloctacosa-2,6,10,14,18,22,26-heptaenyl]-3-methylnaphthalene-1,4-dione]	increase	increase	increase	increase	decrease	decrease	decrease	77	93	increased	23.1	14.5	−35.8	−21.9	−55.5	–	–	–
Vitamin K2	–	–	–	–	–	–	–	–	–	–	–	–	–	–	–	dose- and time-dependent decrease	dose- and time-dependent decrease	dose- and time-dependent decrease
CC(C)=CCC/C(C)=C/CC/C(C)=C/CC/C(C)=C/CC/C(C)=C/CC/C(C)=C/CC/C(C)=C/Cc1c(C)c(O)c2ccccc2c1O [MKH2-7, 2-[(2E,6E,10E,14E,18E,22E)-3,7,11,15,19,23,27-heptamethyloctacosa-2,6,10,14,18,22,26-heptaenyl]-3-methylnaphthalene-1,4-diol]	–	increase	increase	increase	decrease	decrease	decrease	–	–	increased	–	–	–	–	–	–	–	–
